Values of other authors in patent US20010003742A1, “Antilipemic formulation” (priority 1998, published 2001).

Conditions: gelatine itself

In the case of gelatine, the haemostatic effect is listed as “only displays a haemostatic effect after an addition of thrombin”.
